Experiment: Thiol Vapor Pressure Suppression (TVPS) index, zNose fast GC headspace
Design: key: % reduction in butanethiol headspace peak area vs control
Conditions: percentage reduction in butanethiol headspace peak area; 5 μl compound, 37° C. 4 hours
Source text: (§1) Thiol Vapor Pressure Suppression (TVPS) index is a measure of the reduction in butanethiol concentration in the headspace by a compound, as measured using a fast GC instrument, the zNose 7100 (Electronic Sensor Technologies, Newbury Park, Calif.).
as §1, with “Calif.) based on an Surface Acoustic Wave (SAW) Quartz microbalance detector, or equivalent.” for “Calif.).”
Before any measurements the instrument is calibrated according to manufacturer's instructions under the same experimental settings. The instrument has a DB-5 column (also available from Electronic Sensor Technologies, Newbury Park, Calif.) 1 m in length, 0.25 μm phase thickness, and 0.25 mm in diameter.
For analysis, the zNose is programmed with the Sensor Temperature, Inlet Temperature, Valve Temperature, and Initial Column Temperature all set to 40° C. The oven is temperature gradient is programmed at a rate of 10 C°/s from 40° C. to a final temperature of 200° C.
TVPS of a compound is measured in the following way: 100 μl±1 μl of a 1% v/v butanethiol (99%, purity, available from Sigma-Aldrich, St. Louis, Mo.) solution in ethanol (200 proof) is added into a 1 ml vial (8×40 mm). These vials are borosilcate glass straight walled vial. In another 1 ml vial (8×40 mm), 5 μl±0.2 μl of the compound is added. Both open vials are then placed inside a 20 mL headspace vial (22×75 mm), and the vial is immediately sealed using a screw thread closure with PTFE/Silicone septa. The vial is heated to 37° C. for 4 hours. After 4 hours, the vial is removed from the oven and let to equilibrate at 25° C.±2° C. for 15 minutes. The headspace inside the vial is sampled using the zNose is sampled for 10 s and analyzed following the experimental protocol outlined above. Samples with butanethiol alone, and the volatile active alone, are run using the same protocol to identify the peaks for both materials. An acceptable retention index for butanethiol is 720±30. If the peaks butanethiol peak and the volatile material peak co-elute, one skilled in the art can modify the protocol settings to separate those peaks to achieve a minimum resolution of 1.5. For example one can change the column temperature ramp rate. In between samples, the instrument needs to be cleaned to remove any trace materials. To clean the instrument, the instrument is run without samples as needed until no peaks greater than 100 counts are observed.
The amount of butanethiol in the headspace is measured from the area of the peak on the chromatograph for butanethiol (ABtSH,Rx). To calculate the percentage of butanethiol reduction in the headspace, a control with the butanethiol solution without the volatile material is run in the same manner and the area is measured as well (ABtSH,C). TVPS is then measured as the percentage reduction in butanethiol area calculated using the following formula: […]

SMILES | TVPS
C=CC(C)CCC=C(C)CCC=O (stereo not drawn) [Floral Super] | 52.4
CC(C)=CCCC(C)C=O (stereo not drawn) [melonal] | 20.4
CC(C)=CCCC(C)CCCC(C)C=O (stereo not drawn) [adoxal] | 24.4
CC(C)=CCC/C(C)=C\C=O [neral] | 17.1
Cc1ccc(C=O)s1 [5-methyl-2-thiophene-carboxaldehyde] | 67.4
CC(C)c1cccc(C(C)CC=O)c1 (stereo not drawn) [Florhydral] | 53.3
CCC/C=C/C=O [trans-2-hexenal] | 27.1
CC1=CC(C)C(C=O)CC1 (stereo not drawn) [ligustral] | 42.5
CCCCCCC(C=O)=Cc1ccccc1 [Hexylcinnamic aldehyde] | 8.0

Source: patent US10183273B2, “Absorbent article comprising cyclodextrin complexes” (The Procter & Gamble Company, priority 2016, dated 2019)
